Measured values: publication PMC9598656, “In Vitro Activity of Robenidine Analogues NCL259 and NCL265 against Gram-Negative Pathogens” (Antibiotics, 2022)
In brackets after ≈: the same amount, converted by molar mass.

Columns and labels:
A. baumannii ATCC 12457 = experiment: MIC, broth micro-dilution; format: cell-based, Acinetobacter baumannii; conditions: Acinetobacter baumannii, ATCC12457, read-out: MIC, Single Drug
Method: (§1) A variety of Gram-negative reference strains (E. coli ATCC 25922, E. coli ATCC 10763, P. aeruginosa PAO1, P. aeruginosa ATCC 27853, A. baumannii ATCC 12457, A. baumannii ATCC 19606, K. pneumoniae ATCC 4352 and K. pneumoniae ATCC 33495) were used for initial screening and combination testing with PMB. The organisms were speciated using biochemical testing and MALDI-TOF mass spectrometry (Bruker, Preston, VIC, Australia). Activity testing of NCL259 and NCL265 was also carried out on 51 extraintestinal clinical E. coli isolates from companion animals, and 83 porcine and bovine enterotoxigenic E. coli (ETEC) isolates from the Australian Centre for Antimicrobial Resistance Ecology collection. E. coli wild-type (BW 25113) and its mutant BW 25113∆AcrB, in which the inner membrane component AcrB of the tripartite multidrug efflux system AcrA/AcrB/TolC has been deleted, were obtained from the bacterial collection held at Health and Biomedical Innovation, Clinical and Health Sciences, The University of South Australia. All isolates were cultured on sheep blood agar (SBA) plates at 37 °C for 18 h before being subcultured into Luria Bertaini (LB) (Oxoid, Scoresby, VIC, Australia) broth and grown to A600nm = 0.5 (equivalent to approx. 1.5 × 10^8 colony-forming units (CFU)/mL).
(§2) MICs for NCL259 and NCL265 (serial two-fold dilutions commencing at 256 µg/mL) were determined (in duplicate) in round bottom 96–well microtitre trays (Sarstedt 82.1582.001), using the broth micro-dilution method recommended by the Clinical and Laboratory Standards Institute (CLSI). We have shown previously that robenidine can chelate calcium ions from cation-adjusted Mueller-Hinton broth, which causes the loss of activity of robenidine. Therefore, LB broth was used in this study. Additionally, considering the low solubility of robenidine and its analogues in aqueous solutions, two-fold serial dilutions of stock solutions of these compounds were prepared in 100% DMSO [21]. The MIC for ampicillin against each isolate was determined for each test to serve as an internal quality control. The MICs of isolates were determined by visual reading and using an EnSpire Multimode Plate Reader 2300 at A600nm.

A. baumannii ATCC 19606 = experiment: MIC, broth micro-dilution; format: cell-based, Acinetobacter baumannii; conditions: Acinetobacter baumannii, ATCC19606, read-out: MIC, Single Drug
Method: as §1, §2

[1] = test system: MCF-7 (human mammary gland adenocarcinoma cell line); experiment: In vitro cytotoxicity, WST-1; format: cell-based; conditions: MCF7, 24 h
Excerpt: (§3) Potential toxicity of NCL259 and NCL265 to mammalian cells relative to the parent compound (NCL812) was examined using Caco-2 (human colorectal adenocarcinoma cell line), HEL 299 (non-cancerous human lung fibroblast cell line), Hep G2 (human hepatocellular carcinoma cell line), MCF-7 (human mammary gland adenocarcinoma cell line), MDBK (normal Madin–Darby bovine kidney cell line) and Vero (normal adult African green monkey cell line), essentially as described previously. Toxicity to the cell lines was performed using serial two-fold dilutions of each compound from 128 to 1 μg/mL in duplicates in flat bottom 96 well tissue culture trays (Sarstedt 83.3924) containing approximately 2 × 10^4 cells per well in antibiotic-free Dulbecco’s Modified Eagle’s Medium (DMEM; Gibco Cat No: 12430; Thermo Fisher Scientific, Scoresby, VIC, Australia) consisting of 10% (v/v) fetal bovine serum at 37 °C, 5% CO2 for 24 h. Duplicate wells containing ampicillin at 128 to 1 μg/mL were used as controls. Thereafter, 10% (v/v) of the WST-1 cell proliferation assay reagent (Cat No: 05015944001; Roche Life Science, North Ryde, NSW, Australia) was added to each well, the trays were further incubated at 37 °C, 5% CO2 for 1 h and absorbance read at A450nm on a Multiskan Ascent 354 Spectrophotometer (Labsystems, Lilydale, VIC, Australia). The inhibitory concentration of each compound was determined as the half maximal inhibitory concentration (IC50) at A450nm.

[2] = test system: MDBK (normal Madin–Darby bovine kidney cell line); experiment: In vitro cytotoxicity, WST-1; format: cell-based; conditions: Bos taurus, 24 h
Excerpt: as §3

[3] = test system: Gram-negative reference strains; experiment: Checkerboard with PMB over the reference strains; format: cell-based; conditions: sub-inhibitory PMB
Method: MICs of NCL259 or NCL265 in the presence of the efflux pump inhibitor, PAβN were determined using a checkerboard assay. […] Briefly, a two-fold serial dilution of each antimicrobial solution was prepared in its appropriate solvent (e.g., DMSO for robenidine analogues and Milli-Q water for PAβN), and 1 μL of each dilution was added from wells 12 to 3 (12.8–0.25 μg/mL for robenidine analogues, and 32–2 μg/mL for PAβN). Thereafter, 89 μL of LB broth was added to each well followed by the addition of 10 μL of bacterial suspension (1–5 × 10^6 CFU/mL) to each well. In this manner, the final concentration of DMSO in each well was 1%. The plate was subsequently incubated at 37 °C for 24 h. The resazurin assay was used for assessment of drug susceptibility of NCL259 and NCL265 (Supplementary Table S1–S6). The same method was also used to test the MICs of NCL259 or NCL265 in the presence of PMB against a range of Gram-negative reference strains (E. coli ATCC 25922, E. coli ATCC 10763, P. aeruginosa PAO1, P. aeruginosa ATCC 27853, A. baumannii ATCC 12457, A. baumannii ATCC 19606, K. pneumoniae ATCC 4352 and K. pneumoniae ATCC 33495). […] The interaction of two antibiotics was calculated as the fractional inhibitory concentration index (FICI) using the following formula:(1) FICI=MICA in combination/MICA alone+MICB in combination/MICB alone where A is NCL259 or NCL265 and B is PAβN or PMB. […]

E. coli ATCC 25922 = conditions: cited from earlier work; for reduction in CFU (bactericidal): E. coli ATCC 25922, after 30 min treatment; for reduction of colony forming units: within 20 min at the MIC
K. pneumoniae ATCC 4352 = test system: K. pneumoniae ATCC 4352; parameters: method as in PMID 30318716; conditions: after 30 min treatment; cited from earlier work
[4] = first of two independent experiments
[5] = second of two independent experiments

SMILES: [H]/N=C(\N)NN=C(CCCCCC)c1ccc(Cl)cc1 [NCL265, (E)-2-(1-(4-chlorophenyl)heptylidene)hydrazine-1-carboximidamide]
- MIC (A. baumannii ATCC 12457): 2 µg/mL
- MIC (A. baumannii ATCC 19606): 2 µg/mL
- IC50 [1, 4]: < 1 µg/mL
- IC50 [1, 5]: 6 µg/mL (≈ 21.4 µM)
- IC50 [2, 4]: 3 µg/mL (≈ 10.7 µM)
- IC50 [2, 5]: 2 µg/mL (≈ 7.12 µM)
- reduction of MIC in combination with PMB [3]: 4- to 256 fold
- reduction in CFU (bactericidal) (E. coli ATCC 25922): > 5 log 10
- reduction of colony forming units (E. coli ATCC 25922): 100%
- reduction in CFU (bactericidal) (K. pneumoniae ATCC 4352): > 5 log 10

SMILES: [H]/N=C(\N)NN=C(CC1CCCCC1)c1ccc(Cl)cc1 [NCL259, (E)-2-(1-(4-chlorophenyl)-2-cyclohexylethylidene)hydrazine-1-carboximidamide]
- MIC (A. baumannii ATCC 12457): 8 µg/mL
- MIC (A. baumannii ATCC 19606): 8 µg/mL
- IC50 [1, 4]: 3 µg/mL (≈ 10.2 µM)
- IC50 [1, 5]: 6 µg/mL (≈ 20.5 µM)
- IC50 [2, 4]: 2 µg/mL (≈ 6.83 µM)
- IC50 [2, 5]: 2 µg/mL (≈ 6.83 µM)
- reduction of MIC in combination with PMB [3]: 8- to 256 fold
- reduction in CFU (bactericidal) (E. coli ATCC 25922): > 5 log 10
- reduction of colony forming units (E. coli ATCC 25922): 100%
- reduction in CFU (bactericidal) (K. pneumoniae ATCC 4352): > 5 log 10
